We go through 25 compounds from patent US7163952B2, “Azole compound and medicinal use thereof” (Japan Tobacco Inc., priority 2001, dated 2007).

Broadly, the melting point is the temperature, or range, at which the solid turns liquid.

Compound `CC(C)(c1ccc(C(=O)O)cc1)c1nc(-c2ccc(OCc3ccc(Cl)c(Cl)c3)cc2)cs1` [Example 90, 4-(1-(4-(4-(3,4-dichlorobenzyloxy)phenyl)-2-thiazolyl)-1-methylethyl)benzoic acid] had a melting point of 170 to 172 °C.
Consider `CC(C)N(c1nc(-c2ccc(NC(=O)c3ccc(C4CCCCC4)cc3)cc2)cs1)c1c(F)c(F)c(C(=O)O)c(F)c1F` [Example 52, 4-(N-(4-(4-(4-cyclohexylbenzoylamino)phenyl)-2-thiazolyl)-N-isopropylamino)-2,3,5,6-tetrafluorobenzoic acid], for which the melting point was in the range of 153 to 157 °C.
To `CC(C)CSc1ccc(CN(C)c2ccc(-c3csc(N(C)Cc4ccc(C(=O)O)cc4)n3)cc2)cc1` [Example 245, 4-((N-(4-(4-(N-(4-isobutylsulfanylbenzyl)-N-methylamino)phenyl)-2-thiazolyl)-N-methylamino)methyl)benzoic acid] belongs 132 to 134 °C; to `O=C(O)c1ccc(N(CCC2CCCCC2)c2nc(-c3cc(Cl)ccc3OCc3ccccc3)cs2)cc1` [Example 152, 4-(N-(4-(2-benzyloxy-5-chlorophenyl)-2-thiazolyl)-N-(2-cyclohexylethyl)amino)benzoic acid], 160 to 163 °C.
As to `CC(C)N(Cc1ccc(C(=O)O)cc1)c1nc(-c2ccc(NC(=O)c3ccc(N4CCCCC4)cc3)cc2)cs1` [Example 62, 4-((N-isopropyl-N-(4-(4-(4-piperidinobenzoylamino)phenyl)-2-thiazolyl)amino)methyl)benzoic acid], the melting point is 234 °C (dec.).
`CC(C)c1ccc(CNc2ccc(-c3csc(N(CC4CCCCC4)c4ccc(C(=O)O)cc4)n3)cc2)cc1` [Example 130, 4-(N-cyclohexylmethyl-N-(4-(4-(4-isopropylbenzylamino)phenyl)-2-thiazolyl)amino)benzoic acid] yielded a melting point of 200 to 202 °C.
With `CN(Cc1ccc(C(=O)O)cc1)c1nc(-c2ccc(CN3CCN(c4ccccc4)CC3)cc2)cs1` [Example 239, 4-((N-methyl-N-(4-(4-(4-phenyl-1-piperazinylmethyl)phenyl)-2-thiazolyl)amino)methyl)benzoic acid], the melting point fell in the range of 159 to 163 °C.
On to `CC(C)N(c1cccc(C(=O)O)c1)c1nc(-c2ccc(NC(=O)c3ccc(N4CCOCC4)cc3)cc2)cs1.Cl`, for which the melting point is 230 °C (dec.).
For the compound `CN(Cc1ccc(C(F)(F)F)cc1)c1ccc(-c2csc(N(C)Cc3ccc(C(=O)O)cc3)n2)cc1` [Example 234, 4-((N-methyl-N-(4-(4-(N-methyl-N-(4-trifluoromethylbenzyl)amino)phenyl)-2-thiazolyl)amino)methyl)benzoic acid], the melting point lay in the range of 180 to 181 °C.
`CC(C)N(Cc1ccc(C(=O)O)cc1)c1nc(-c2ccc(NS(=O)(=O)c3ccc(C(F)(F)F)cc3)cc2)cs1` [Example 106, 4-((N-isopropyl-N-(4-(4-(4-trifluoromethylbenzenesulfonylamino)phenyl)-2-thiazolyl)amino)methyl)benzoic acid]: the melting point lay in the range of 132 to 134 °C.
As to `COc1ccc(OCc2ccccc2)c(-c2csc(Nc3ccc(C(=O)O)cc3)n2)c1` [Example 154, 4-(4-(2-benzyloxy-5-methoxyphenyl)-2-thiazolylamino)benzoic acid], the melting point lay within 184 to 185 °C.
For the compound `CC(C)N(Cc1ccccc1C(=O)O)c1nc(-c2ccc(OCc3ccc(C4CCCCC4)cc3)cc2)cs1` [Example 88, 2-((N-(4-(4-(4-cyclohexylbenzyloxy)phenyl)-2-thiazolyl)-N-isopropylamino)methyl)benzoic acid], the melting point is 259 to 261 °C.
As for `CCN(c1ccc(C(=O)O)cc1)c1nc(-c2ccc(OCc3ccc(C4CCCCC4)cc3)cc2)cs1` [Example 23, 4-(N-(4-(4-(4-cyclohexylbenzyloxy)phenyl)-2-thiazolyl)-N-ethylamino)benzoic acid], the melting point is 239 to 247 °C.
Regarding `CN(c1ccc(C(=O)O)cc1)c1nc(-c2ccc(NCc3ccc(C4CCCCC4)cc3)cc2)cs1.CS(=O)(=O)O`, the melting point lay in the range of 231 to 233 °C.
To `CN(c1ccc(C(=O)O)cc1)c1nc(-c2ccc(NC(=O)c3ccc(C(C)(C)C)cc3)cc2)cs1` [Example 20, 4-(N-(4-(4-(4-tert-butylbenzoylamino)phenyl)-2-thiazolyl)-N-methylamino)benzoic acid] belongs 250 °C (dec.); to `CN(CCc1ccc(C(F)(F)F)cc1)c1ccc(-c2csc(N(C)Cc3ccc(C(=O)O)cc3)n2)cc1` [Example 236, 4-((N-methyl-N-(4-(4-(N-methyl-N-(2-(4-trifluoromethylphenyl)ethyl)amino)phenyl)-2-thiazolyl)amino)methyl)benzoic acid], 158 to 159 °C; to `CCOC(=O)OC(C)OC(=O)c1ccc(CN(C)c2nc(-c3ccc(OCc4ccc(C5CCCCC5)cc4)cc3)cs2)cc1` (stereo not shown) [Example 269, 1-ethoxycarbonyloxyethyl 4-((N-(4-(4-(4-cyclohexylbenzyloxy)phenyl)-2-thiazolyl)-N-methylamino)methyl)benzoate], 99 to 101 °C.
Compound `CN(Cc1ccc(C(=O)O)cc1)c1nc(-c2cnc(N(C)Cc3ccc(C4CCCCC4)cc3)c(Cl)c2)cs1` [Example 232, 4-((N-(4-(5-chloro-6-(N-(4-cyclohexylbenzyl)-N-methylamino)-3-pyridyl)-2-thiazolyl)-N-methylamino)methyl)benzoic acid] gave a melting point of 144 to 145 °C.
`O=C(O)c1ccc(N(Cc2ccc(C(F)(F)F)cc2)c2nc(-c3cc(Cl)ccc3OCc3ccccc3)cs2)cc1` [Example 159, 4-(N-(4-(2-benzyloxy-5-chlorophenyl)-2-thiazolyl)-N-(4-trifluoromethylbenzyl)amino)benzoic acid]: the melting point fell in the range of 194 to 196 °C.
Regarding `CC(C)c1ccc(COc2ccc(Cl)cc2-c2csc(Nc3ccc(C(=O)O)cc3)n2)cc1` [Example 173, 4-(4-(5-chloro-2-(4-isopropylbenzyloxy)phenyl)-2-thiazolylamino)benzoic acid], the melting point lay in the range of 215 to 218 °C.
In the case of `CCN(c1ccc(C(=O)O)cc1)c1nc(-c2ccc(NC(=O)c3ccccc3)cc2)cs1` [Example 7, 4-(N-(4-(4-benzoylaminophenyl)-2-thiazolyl)-N-ethylamino)benzoic acid], the melting point was 250 °C (dec.).
To `O=C(O)c1ccc(COc2cc(C(=O)O)ccc2Nc2nc(-c3ccc(OCc4ccc(C5CCCCC5)cc4)cc3)cs2)cc1` [Example 74, 3-(4-carboxybenzyloxy)-4-(4-(4-(4-cyclohexylbenzyloxy)phenyl)-2-thiazolylamino)benzoic acid] belongs 230 °C (dec.).
For `CC(C)N(c1ccc(C(=O)O)cc1)c1nc(-c2ccc(NC(=O)C3CCCCC3)cc2)cs1` [Example 12, 4-(N-(4-(4-(cyclohexanecarbonylamino)phenyl)-2-thiazolyl)-N-isopropylamino)benzoic acid], the melting point was 230 °C (dec.).
Take `O=C(O)c1ccc(N(CC2CCCCC2)c2nc(-c3ccc(NCc4ccc(Cl)c(Cl)c4)cc3)cs2)cc1` [Example 129, 4-(N-cyclohexylmethyl-N-(4-(4-(3,4-dichlorobenzylamino)phenyl)-2-thiazolyl)amino)benzoic acid]: the melting point lay within 187 to 189 °C.
Under `CN(Cc1ccc(C2CCCCC2)cc1)c1ccc(-c2csc(N(C)Cc3ccc(C(=O)O)cc3)n2)cc1.O=S(=O)(O)O` stands 130 °C (dec.).
